# Measured values reported in article PMC3671111, “A Phase I, open-label, randomized, crossover study in three parallel groups to evaluate the effect of Rifampicin, Ketoconazole, and Omeprazole on the pharmacokinetics of THC/CBD oromucosal spray in healthy volunteers” (SpringerPlus, 2013).
# pIC50: −log10 of the molar value. Values joined by “and” are separate entries in the source; they are usually repeats but may differ in a detail not shown here. Equal values may be shown once. Marks after values point to notes of the source that are not given here.
# Key:
# [1] = Phase I drug-drug interaction PK, Group 1: THC/CBD spray alone or with rifampicin, plasma by GC-MS; parameters: k el / half-life: dose or concentration left out as unconfirmed; details: for CL/F / Varea/F: n = 12, mean (SD)
# Experimental: (§1) Subjects received rifampicin on Days 1-9. […] Subjects received ketoconazole on Days 1-4.
# (§2) Blood samples were collected at specified times and stored on ice (except rifampicin PK samples which were stored in iced water) prior to processing and storage. Plasma samples were separated by centrifugation (approximately 2500 rpm × 15 minutes at 4°C). Samples were stored in 4 mL amber glass screw top glass vials with PTFE lined screw caps labelled with Guys Drug Research (Quintiles Limited) labels. The aliquots were stored in clearly labelled containers in a freezer set at or below -20°C, until shipped for assay. Samples were shipped on dry ice at the appropriate time-points.
# (§3) The assay validation was undertaken by Advanced Bioanalytical Service Laboratories (London, UK), who developed the technique after reviewing the literature, which was based on the methodology adopted by three different groups (Foltz et al. [1983]; Goodall & Basteyns [1995]; Kemp et al. [1995]), and designed with reference to FDA guidelines for industry (FDA Guidance for Industry [2012]). The method utilised protein precipitation, solvent extraction and derivatisation for the sample preparation and then sample analysis by capillary gas chromatography and detection by a mass spectrometer (GC-MS). The validation procedure investigated the calibration model with the best regression fit over the concentration range 0.1 - 100 ng/mL for CBD, THC and 11-OH-THC, as well as precision and accuracy of the method, stability, carry-over, and specificity.
# (§4) Human plasma from healthy volunteers was used to prepare the standards and quality control (QC) samples, with analytes extracted using hexane/ethyl acetate (7:1 ratio), derivatised with N,O-Bis(trimethylsilyl)trifluoroacetamide. Analytic grade THC (Sigma, UK), CBD (Sigma, UK) and 11-OH-THC (Radian International and Cerillant, UK) were obtained, and three sets of CBD, THC and 11-OH-THC were used to support the study. Deuterated THC-d3 (Sigma, UK) was used as the internal standard. The GC-MS equipment was a Hewlett Packard 6890 Gas Chromatograph attached to a Hewlett Packard 5973 Mass Selective Detector. Data handling was carried out using an MS Chemstation System and the peak area ratio of the analytes to the internal standard was calculated in Excel (2000). The concentrations were calculated from the ratio data using least squares ln(y) on ln(x) regression performed in Excel (2000), and were then checked manually. Regression analysis was undertaken to find the regression model that best described the calibration data (for details, see ([Miller & Miller 1992])).
# (§5) A 0.5 mL aliquot of test sample, QC or blank plasma was placed into a test tube. The blank plasma was spiked with 50 μL of the appropriate standard solution to produce the calibration standards. 50 μL of the internal standard was added to each test tube. The samples were then diluted by the addition of 500 μL of 0.1% (w/v) ascorbic acid and the protein precipitated by the addition of 1.0 mL of acetonitrile. The proteins were removed by centrifugation and the supernatant concentrated to 1 mL using nitrogen at 50 °C. The samples were then basified by the addition of 300 μL of 5M sodium hydroxide and the analytes extracted by the addition of 2.0 mL of 7:1 hexane:ethyl acetate. After mixing for 16 minutes the tubes were centrifuged and the top layer transferred into clean 3 dram vials. The solvent was removed using nitrogen at 70 °C and the dried extract resuspended in 100 μL of BSTFA and transferred to microvials, capped and placed at 70 °C for 30 minutes to derivatise the analytes. The microvials were then cooled and loaded onto the autosampler tray for analysis where 1 μL was injected onto the GC-MS system.
# [2] = Phase I drug-drug interaction PK, Group 3: THC/CBD spray alone or with omeprazole, plasma by GC-MS; details: for CL/F / Varea/F: n = 12, mean (SD); for Cmax and AUC % Co-efficient of Variation (CV%) range: inter-subject variability
# Experimental: as §1, §2, §3, §4, §5
# [3] = Peak plasma concentration of CBD in normal dosing
# Excerpt: However, to investigate the potential interactions of THC and CBD with drugs which also interact with the CYP450s CYP3A4 and CYP2C19, various known inducers/inhibitors of these isoenzymes were employed and the pharmacokinetics (PKs) of their co-administration with THC/CBD spray evaluated.
# [4] = Phase I drug-drug interaction PK, Group 2: THC/CBD spray alone or with ketoconazole, plasma by GC-MS; parameters: k el: dose or concentration left out as unconfirmed; details: for CL/F / Varea/F: mean (SD)
# Experimental: as §1, §2, §3, §4, §5
# [5] = tested on: CYP2C19; parameters: method as in GW unpublished data; details: one range printed for CYP3A4 and CYP2C19; ref GW unpublished data; read-out: IC50, inhibitory effect on CYP2C19; cited from earlier work
# [6] = tested on: CYP3A4; parameters: method as in GW unpublished data; details: one range printed for CYP3A4 and CYP2C19; ref GW unpublished data; read-out: IC50, inhibitory effect on CYP3A4; cited from earlier work
# [7] = in normal dosing; approximately; no reference given; cited from earlier work
# [8] = Rifampicin and THC/CBD spray vs THC/CBD spray alone, no-interaction range 0.80 to 1.25
# [9] = THC/CBD spray 4 sprays and rifampicin 600 mg after repeated daily dosing, plasma
# [10] = THC/CBD spray alone, single dose 4 sprays (10.8/10 mg), rifampicin group, plasma
# [11] = THC/CBD spray co-administered with rifampicin vs alone
# [12] = Omeprazole and THC/CBD spray vs THC/CBD spray alone, no-interaction range 0.80 to 1.25
# [13] = THC/CBD spray 4 sprays and omeprazole 40 mg at end of 6-day dosing period, plasma
# [14] = THC/CBD spray alone, single dose 4 sprays (10.8/10 mg), omeprazole group, plasma
# [15] = THC/CBD spray co-administered with omeprazole vs alone
# [16] = male, human, plasma, oral, 40 mg
# [17] = Ketoconazole and THC/CBD spray vs THC/CBD spray alone, no-interaction range 0.80 to 1.25
# [18] = THC/CBD spray 4 sprays and ketoconazole 400 mg at end of 5-day dosing period, n = 11, plasma
# [19] = THC/CBD spray alone, single dose 4 sprays (10.8/10 mg), ketoconazole group, n = 12, plasma
# [20] = THC/CBD spray co-administered with ketoconazole vs alone
structure (smiles),measurement,setting,value
"C=C(C)[C@@H]1CCC(C)=C[C@H]1c1c(O)cc(CCCCC)cc1O [CBD, cannabidiol]","Geometric mean ratio of AUC(0-inf), point estimate",[1]; [8],[…]
same,CL/F,[1]; [9],5966 L/h and 5966 (3713)^b L/h
same,Varea/F,[1]; [9],34790 (20036)^b L
same,CL/F,[1]; [10],2817 L/h and 2817 (1913) L/h
same,Varea/F,[1]; [10],28312 (19355) L
same,% change in mean t1/2,[1]; [11],-62%
same,% change in median Tmax,[1]; [11],+50%
same,Change in mean Cmax,[1]; THC/CBD spray with rifampicin vs THC/CBD spray alone,-52%
same,Change in mean CL/F,[1]; after multiple dose rifampicin treatment vs THC/CBD spray alone,+112%
same,AUC(0-inf),"[1]; male, human, plasma",2.15 ng·h/mL
same,AUC(0-t),"[1]; male, human, plasma",1.31 ng·h/mL
same,Cmax,"[1]; male, human, plasma",0.5 ng/mL
same,Tmax,"[1]; male, human, plasma",1.5 h
same,half-life,"[1]; male, human, plasma",4.13 h
same,k el,"[1]; male, human, plasma",5.44e-05 s⁻¹
same,Tmax,"[1]; male, human, plasma, oral",1 h
same,half-life,"[1]; male, human, plasma, oral",10.9 h
same,CL/F,[2]; [13],4772 (4550) L/h
same,Varea/F,[2]; [13],24757 (16311) L
same,CL/F,[2]; [14],4741 (3845)^a L/h
same,Varea/F,[2]; [14],26298 (14532)^a L
same,% change in Tmax,[2]; [15],+9%
same,% change in t1/2,[2]; [15],+5%
same,Substrate for the isoenzyme CYP2C19 (conclusion from omeprazole interaction),[2]; at the clinically relevant dose of THC/CBD spray investigated,not substrates
same,Tmax,"[2]; male, human, plasma, oral",1.15 h
same,half-life,"[2]; male, human, plasma, oral",5.22 h
same,AUC(0-inf),[2]; [16],3.33 ng·h/mL
same,AUC(0-t),[2]; [16],2.25 ng·h/mL
same,Cmax,[2]; [16],0.73 ng/mL
same,Tmax,[2]; [16],1.25 h
same,half-life,[2]; [16],5.46 h
same,k el,[2]; [16],5.83e-05 s⁻¹
same,CL/F,[4]; [18],1731 L/h and 1731 (650)^c L/h
same,Varea/F,[4]; [18],14349 (7076)^c L
same,CL/F,[4]; [19],2998 L/h and 2998 (896)^b L/h
same,Varea/F,[4]; [19],31994 (12794)^b L
same,% change in mean Tmax,[4]; [20],+27%
same,% change in t1/2,[4]; [20],-16%
same,Change in mean Cmax,[4]; THC/CBD spray with ketoconazole vs THC/CBD spray alone,+89%
same,Change in mean CL/F,[4]; co-administered with ketoconazole vs THC/CBD spray alone,-42%
same,AUC(0-inf),"[4]; male, human, plasma, oral",6.5 ng·h/mL
same,AUC(0-t),"[4]; male, human, plasma, oral",4.83 ng·h/mL
same,Cmax,"[4]; male, human, plasma, oral",1.25 ng/mL
same,k el,"[4]; male, human, plasma, oral",3.97e-05 s⁻¹
same,Substrate for the isoenzyme CYP3A4 (conclusion from ketoconazole interaction),[4]; suggested by increased exposure with ketoconazole,substrates
same,pIC50,[5],5.05 to 5.22
